We go through 26 compounds from patent US12655142B2 (Merck Patent GmbH, priority 2019, dated 2026).

Test [1] concerns the target T1, GIST430/654 cell line expressing mutated constitutively active cKIT receptor tyrosine kinase (Δ560-576 deletion and V654A point mutation) (Homo sapiens, UniProt P10721, DEL560-576/V654A).
T1 construct: endogenous in cells; host or cells: GIST430/654 cells
The test is described as follows: Cellular cKIT autophosphorylation (phospho-Y307-cKIT, Luminex bead assay) in GIST430/654 cells. The test is classed as cell-based. The following applies: compounds 45 min, read-out: GIST 430/654 IC50. A digest of the protocol:
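Phospho-Y307 cKIT in lysates was measured on a Luminex bead assay, with total-cKIT capture overnight at 4 °C and phosphospecific plus PE secondary detection. Cells had 45 min exposure to a compound dilution series the day after plating: GIST430 (Δ560-576) or GIST430/654 (Δ560-576/V654A, grown with 100 nM imatinib). IC50 values are relative to 0.3% DMSO-treated cells.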

A further test addresses T2, c-Kit(V654A) (Homo sapiens, UniProt P10721, V654A).
T2 construct: recombinant human c-Kit, amino acids 544-end containing the V654A mutation; GST (N)
The test is described as follows: c-Kit(V654A) assay (33P-ATP filter binding kinase assay). In kind it is biochemical. The following applies: recombinant human c-Kit aa 544-end V654A, ATP 200 μM. The procedure, abridged:
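Radiometric filter-binding read-out: substrate 33P incorporation counted by scintillation after P30 filtermat washes in 75 mM phosphoric acid and methanol. Enzyme: N-GST recombinant human c-Kit aa 544-end carrying V654A.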

SMILES strings stand for the structures.

T1 sequence (P10721 with tags, fused parts or gaps DEL560-576/V654A): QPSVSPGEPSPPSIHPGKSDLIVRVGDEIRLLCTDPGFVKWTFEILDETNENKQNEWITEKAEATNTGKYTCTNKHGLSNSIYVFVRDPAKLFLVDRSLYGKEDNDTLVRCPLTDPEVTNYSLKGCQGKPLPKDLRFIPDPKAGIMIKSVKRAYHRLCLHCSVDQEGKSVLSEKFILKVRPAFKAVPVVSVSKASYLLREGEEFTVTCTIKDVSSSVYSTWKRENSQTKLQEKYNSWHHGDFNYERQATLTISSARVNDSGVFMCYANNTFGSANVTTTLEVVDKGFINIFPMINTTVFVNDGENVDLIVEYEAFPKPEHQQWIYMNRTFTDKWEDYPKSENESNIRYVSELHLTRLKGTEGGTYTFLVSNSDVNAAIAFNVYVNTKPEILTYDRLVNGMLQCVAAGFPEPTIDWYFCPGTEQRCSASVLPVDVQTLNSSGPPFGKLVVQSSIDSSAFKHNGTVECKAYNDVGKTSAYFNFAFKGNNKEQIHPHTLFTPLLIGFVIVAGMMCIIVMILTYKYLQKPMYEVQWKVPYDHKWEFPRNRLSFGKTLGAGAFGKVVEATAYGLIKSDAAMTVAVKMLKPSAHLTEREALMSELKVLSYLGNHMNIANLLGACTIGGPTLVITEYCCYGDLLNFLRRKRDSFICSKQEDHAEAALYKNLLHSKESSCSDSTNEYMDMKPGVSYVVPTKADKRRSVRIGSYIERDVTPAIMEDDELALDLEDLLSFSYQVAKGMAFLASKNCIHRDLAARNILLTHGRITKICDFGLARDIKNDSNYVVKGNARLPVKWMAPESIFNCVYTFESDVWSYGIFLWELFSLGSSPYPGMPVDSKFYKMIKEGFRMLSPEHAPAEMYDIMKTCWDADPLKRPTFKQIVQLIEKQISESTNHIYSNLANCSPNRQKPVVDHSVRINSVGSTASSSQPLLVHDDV
T2 sequence (P10721 544-976 V654A): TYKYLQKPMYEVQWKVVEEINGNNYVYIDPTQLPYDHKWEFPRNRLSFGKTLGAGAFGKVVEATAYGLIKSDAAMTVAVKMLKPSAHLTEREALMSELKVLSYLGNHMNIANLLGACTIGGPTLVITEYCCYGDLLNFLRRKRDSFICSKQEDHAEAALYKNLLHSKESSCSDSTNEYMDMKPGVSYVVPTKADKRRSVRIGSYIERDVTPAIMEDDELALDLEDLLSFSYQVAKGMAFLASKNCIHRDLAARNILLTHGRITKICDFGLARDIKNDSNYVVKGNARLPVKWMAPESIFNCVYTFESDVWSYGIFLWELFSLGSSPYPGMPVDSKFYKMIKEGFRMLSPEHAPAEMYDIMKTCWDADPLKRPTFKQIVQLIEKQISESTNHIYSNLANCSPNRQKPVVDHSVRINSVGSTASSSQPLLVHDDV

Regarding `Cn1ncc(-c2ccc(CNc3cc(-c4cnc5cc(OCCC6CCN(C7COC7)C6)ccn45)ncn3)cc2)n1` (stereo not shown) [A119, [4-(2-methyl-2H-[1,2,3]triazol-4-yl)-benzyl]-(6-{7-[2-(1-oxetan-3-yl-pyrrolidin-3-yl)-ethoxy]-imidazo[1,2-a]pyridin-3-yl}-pyrimidin-4-yl)-amine], the IC50 came to 62 nM in test [1] and 3.4 nM at c-Kit(V654A).
Consider `COc1ccn2c(-c3cc(NCc4ccc(-c5cnc(C)nc5)cc4)ncn3)cnc2c1` [A41, 6-{7-methoxyimidazo[1,2-a]pyridin-3-yl}-N-{[4-(2-methylpyrimidin-5-yl)phenyl]methyl}pyrimidin-4-amine], for which the IC50 in test [1] was found to be 1600 nM; at c-Kit(V654A), 46 nM.
On the same counts, the results for `Cn1cc(-c2ccc(CNc3cc(-c4cnc5cc(O)ccn45)ncn3)cc2)cn1` [A160, 3-[6-({[4-(1-methyl-1H-pyrazol-4-yl)phenyl]methyl}amino)pyrimidin-4-yl]imidazo[1,2-a]pyridin-7-ol] are 1000 nM and 38 nM.
Taken in the same sequence, the figures for `CN1CCO[C@@H](COc2ccn3c(-c4cc(NCc5ccc(-c6cnn(C)n6)cc5)ncn4)cnc3c2)C1` [A121, {6-[7-((R)-4-methyl-morpholin-2-ylmethoxy)-imidazo[1,2-a]pyridin-3-yl]-pyrimidin-4-yl}-[4-(2-methyl-2H-[1,2,3]triazol-4-yl)-benzyl]-amine] were 34 nM and 3.6 nM.
`COc1ccn2c(-c3cc(NCc4ccc(-c5cnn(CCO)c5)cc4)ncn3)cnc2c1` [A30, 2-[4-(4-{[6-(7-methoxy-imidazo[1,2-a]pyridin-3-yl)-pyrimidin-4-ylamino]-methyl}-phenyl)-pyrazol-1-yl]-ethanol]: the IC50 stood at 180 nM in test [1] and 27 nM at c-Kit(V654A).
For the compound `CN1CCO[C@H](COc2ccn3c(-c4cc(NCc5ccc(-c6cnn(C)c6)cc5)ncn4)cnc3c2)C1` [A118, {6-[7-((S)-4-methyl-morpholin-2-ylmethoxy)-imidazo[1,2-a]pyridin-3-yl]-pyrimidin-4-yl}-[4-(1-methyl-1H-pyrazol-4-yl)-benzyl]-amine], the IC50 was 40 nM in test [1] and 4.7 nM at c-Kit(V654A).
On the same counts, the results for `Cn1ncc(-c2ccc(CNc3cc(-c4cnc5cc(OCC6CCN(CC(F)F)CC6)ccn45)ncn3)cc2)n1` [A193, (6-{7-[1-(2,2-difluoro-ethyl)-piperidin-4-ylmethoxy]-imidazo[1,2-a]pyridin-3-yl}-pyrimidin-4-yl)-[4-(2-methyl-2H-[1,2,3]triazol-4-yl)-benzyl]-amine] are 26 nM and 19 nM.
Regarding `Cn1ncc(-c2ccc(CNc3cc(-c4cnc5cc(OCCc6nccn6C)ccn45)ncn3)cc2)n1` [A98, (6-{7-[2-(1-methyl-1H-imidazol-2-yl)-ethoxy]-imidazo[1,2-a]pyridin-3-yl}-pyrimidin-4-yl)-[4-(2-methyl-2H-[1,2,3]triazol-4-yl)-benzyl]-amine], the IC50 was found to be 98 nM in test [1] and 8.3 nM at c-Kit(V654A).
Consider `Cn1cc(-c2ccc(CNc3cc(-c4cnc5cc(OCCN6CCC[C@@H]7OCC[C@@H]76)ccn45)ncn3)cc2)cn1` [A210, (6-{7-[(3aS,7aS)-2-(hexahydro-furo[3,2-b]pyridin-4-yl)-ethoxy]-imidazo[1,2-a]pyridin-3-yl}-pyrimidin-4-yl)-[4-(1-methyl-1H-pyrazol-4-yl)-benzyl]-amine], for which the IC50 in test [1] stood at 100 nM; on c-Kit(V654A) it was 6.5 nM.
As to `c1cn(-c2ccc(CNc3cc(-c4cnc5cc(OCCN6CCOCC6)ccn45)ncn3)cc2)nn1` [A68, {6-[7-(2-morpholin-4-yl-ethoxy)-imidazo[1,2-a]pyridin-3-yl]-pyrimidin-4-yl}-(4-[1,2,3]triazol-1-yl-benzyl)-amine], the IC50 was 63 nM in test [1] and 5.7 nM on c-Kit(V654A).
On the same counts, the results for `Cn1cc(-c2ccc(CNc3cc(-c4cnc5cc(OCCN6CC(F)(F)C6)ccn45)ncn3)cc2)cn1` [A139, 6-{7-[2-(3,3-difluoroazetidin-1-yl)ethoxy]imidazo[1,2-a]pyridin-3-yl}-N-{[4-(1-methyl-1H-pyrazol-4-yl)phenyl]methyl}pyrimidin-4-amine] are 160 nM and 9.6 nM.
On the same counts, the results for `Cn1cc(-c2ccc(CNc3cc(-c4cnc5cc(OCCc6nccn6C)ccn45)ncn3)cc2)cn1` [A111, (6-{7-[2-(1-methyl-1H-imidazol-2-yl)-ethoxy]imidazo[1,2-a]pyridin-3-yl}-pyrimidin-4-yl)-[4-(1-methyl-1H-pyrazol-4-yl)-benzyl]-amine] are 63 nM and 7.9 nM.
Taken in the same sequence, the figures for `Cn1cc(-c2ccc(CNc3cc(-c4cnc5cc(OCCC[N+]6([O-])CCCC6)ccn45)ncn3)cc2)cn1` [A228, 1-[3-({3-[6-({[4-(1-methyl-1H-pyrazol-4-yl)phenyl]methyl}amino)pyrimidin-4-yl]imidazo[1,2-a]pyridin-7-yl}oxy)propyl]pyrrolidin-1-ium-1-olate] were 44 nM and 11 nM.
As to `CN1CCOC[C@H]1COc1ccn2c(-c3cc(NCc4ccc(-c5cnn(C)c5)cc4)ncn3)cnc2c1` [A125, N-{[4-(1-methyl-1H-pyrazol-4-yl)phenyl]methyl}-6-(7-{[(3S)-4-methylmorpholin-3-yl]methoxy}imidazo[1,2-a]pyridin-3-yl)pyrimidin-4-amine], the IC50 in test [1] is 210 nM; on c-Kit(V654A), 23 nM.
Regarding `CC(COc1ccn2c(-c3cc(NCc4ccc(-c5cnn(C)c5)cc4)ncn3)cnc2c1)CN1CCCC1` (stereo not shown) [A235, [4-(1-methyl-1H-pyrazol-4-yl)-benzyl]-{6-[7-(2-methyl-3-pyrrolidin-1-yl-propoxy)-imidazo[1,2-a]pyridin-3-yl]-pyrimidin-4-yl}-amine], the IC50 in test [1] stood at 87 nM; on c-Kit(V654A) it was 4.3 nM.
Taken in the same sequence, the figures for `Cn1cc(-c2ccc(CNc3cc(-c4cnc5cc(OCCCN6CCC(F)(F)C6)ccn45)ncn3)cc2)cn1` [A101, 6-{7-[3-(3,3-difluoropyrrolidin-1-yl)propoxy]imidazo[1,2-a]pyridin-3-yl}-N-{[4-(1-methyl-1H-pyrazol-4-yl)phenyl]methyl}pyrimidin-4-amine] were 150 nM and 22 nM.
Taken in the same sequence, the figures for `COc1ccn2c(-c3cc(NCc4ccc(-c5ccc(C)nn5)cc4)ncn3)cnc2c1` [A40, 6-{7-methoxyimidazo[1,2-a]pyridin-3-yl}-N-{[4-(6-methylpyridazin-3-yl)phenyl]methyl}pyrimidin-4-amine] were 1100 nM and 36 nM.
On the same counts, the results for `COc1ccn2c(-c3cc(NCc4ccc(C(=O)N(C)C)cc4)ncn3)cnc2c1` [A13, 4-{[(6-{7-methoxyimidazo[1,2-a]pyridin-3-yl}pyrimidin-4-yl)amino]methyl}-N,N-dimethylbenzamide] are 2300 nM and 100 nM.
Take `Cn1cc(-c2ccc(CNc3cc(-c4cnc5cc(OCCCCN6CCC6)ccn45)ncn3)cc2)cn1` [A225, {6-[7-(4-azetidin-1-yl-butoxy)-imidazo[1,2-a]pyridin-3-yl]-pyrimidin-4-yl}-[4-(1-methyl-1H-pyrazol-4-yl)-benzyl]-am amine]: the IC50 in test [1] was 57 nM; at c-Kit(V654A), 15 nM.
For the compound `Cn1cc(-c2ccc(CNc3cc(-c4cnc5cc(OCCN6CCOCC6=O)ccn45)ncn3)cc2)cn1` [A92, 4-[2-({3-[6-({[4-(1-methyl-1H-pyrazol-4-yl)phenyl]methyl}amino)pyrimidin-4-yl]imidazo[1,2-a]pyridin-7-yl}oxy)ethyl]morpholin-3-one], the IC50 in test [1] worked out at 87 nM; on c-Kit(V654A), 8.2 nM.
On the same counts, the results for `COc1ccn2c(-c3cc(NCc4ccc(-c5cnn(C)c5CO)cc4)ncn3)cnc2c1` [A161, [4-(4-{[6-(7-methoxy-imidazo[1,2-a]pyridin-3-yl)-pyrimidin-4-ylamino]-methyl}-phenyl)-2-methyl-2H-pyrazol-3-yl]-methanol] are 180 nM and 22 nM.
`COc1ccn2c(-c3cc(NCc4ccc(-c5cn(C)cn5)cc4)ncn3)cnc2c1` [A20, [6-(7-methoxy-imidazo[1,2-a]pyridin-3-yl)-pyrimidin-4-yl]-[4-(1-methyl-1H-imidazol-4-yl)-benzyl]-amine]: the IC50 in test [1] came to 650 nM; on c-Kit(V654A), 55 nM.
Turning to `CN1CCO[C@H](COc2ccn3c(-c4cc(NCc5ccc(-c6cnn(C)n6)cc5)ncn4)cnc3c2)C1` [A122, {6-[7-((S)-4-methyl-morpholin-2-ylmethoxy)-imidazo[1,2-a]pyridin-3-yl]-pyrimidin-4-yl}-[4-(2-methyl-2H-[1,2,3]triazol-4-yl)-benzyl]-amine], the values for the IC50 (in test [1]; at c-Kit(V654A)) were 260 nM and 26 nM, respectively.
On the same counts, the results for `Cn1cc(-c2ccc(CNc3cc(-c4cnc5cc(N)ccn45)ncn3)cc2)cn1` [A162, 6-{7-aminoimidazo[1,2-a]pyridin-3-yl}-N-{[4-(1-methyl-1H-pyrazol-4-yl)phenyl]methyl}pyrimidin-4-amine] are 180 nM and 7.4 nM.
As to `COc1ccn2c(-c3cc(NCc4ccc(-c5cncn5C)cc4)ncn3)cnc2c1` [A39, 6-{7-methoxyimidazo[1,2-a]pyridin-3-yl}-N-{[4-(1-methyl-1H-imidazol-5-yl)phenyl]methyl}pyrimidin-4-amine], the IC50 in test [1] worked out at 640 nM; at c-Kit(V654A), 27 nM.
For the compound `Cn1ncc(-c2ccc(CNc3cc(-c4cnc5cc(OCc6ccccn6)ccn45)ncn3)cc2)n1` [A106, [4-(2-methyl-2H-[1,2,3]triazol-4-yl)-benzyl]-{6-[7-(pyridin-2-ylmethoxy)-imidazo[1,2-a]pyridin-3-yl]-pyrimidin-4-yl}-amine], the IC50 in test [1] was 370 nM; at c-Kit(V654A), 9.5 nM.
